# Measurements from paper PMC7073229, “Novel Quinoline Compounds Active in Cancer Cells through Coupled DNA Methyltransferase Inhibition and Degradation” (Cancers, 2020).
# Read-outs that look alike come from different tables or passages of the source.
# Legend:
# human DNMT1 (hDNMT1) = biological target: T1, human DNMT1 (hDNMT1) (Homo sapiens, UniProt P26358); assay: DNMT1 assay ([methyl-3H]SAM, Flashplate); format: biochemical; details: mean of at least two independent experiments; read-out: Enzyme Inhibition (EC50 ± SD) hDNMT1
# T1 construct: His; made in house
# T1 sequence (P26358 whole entry): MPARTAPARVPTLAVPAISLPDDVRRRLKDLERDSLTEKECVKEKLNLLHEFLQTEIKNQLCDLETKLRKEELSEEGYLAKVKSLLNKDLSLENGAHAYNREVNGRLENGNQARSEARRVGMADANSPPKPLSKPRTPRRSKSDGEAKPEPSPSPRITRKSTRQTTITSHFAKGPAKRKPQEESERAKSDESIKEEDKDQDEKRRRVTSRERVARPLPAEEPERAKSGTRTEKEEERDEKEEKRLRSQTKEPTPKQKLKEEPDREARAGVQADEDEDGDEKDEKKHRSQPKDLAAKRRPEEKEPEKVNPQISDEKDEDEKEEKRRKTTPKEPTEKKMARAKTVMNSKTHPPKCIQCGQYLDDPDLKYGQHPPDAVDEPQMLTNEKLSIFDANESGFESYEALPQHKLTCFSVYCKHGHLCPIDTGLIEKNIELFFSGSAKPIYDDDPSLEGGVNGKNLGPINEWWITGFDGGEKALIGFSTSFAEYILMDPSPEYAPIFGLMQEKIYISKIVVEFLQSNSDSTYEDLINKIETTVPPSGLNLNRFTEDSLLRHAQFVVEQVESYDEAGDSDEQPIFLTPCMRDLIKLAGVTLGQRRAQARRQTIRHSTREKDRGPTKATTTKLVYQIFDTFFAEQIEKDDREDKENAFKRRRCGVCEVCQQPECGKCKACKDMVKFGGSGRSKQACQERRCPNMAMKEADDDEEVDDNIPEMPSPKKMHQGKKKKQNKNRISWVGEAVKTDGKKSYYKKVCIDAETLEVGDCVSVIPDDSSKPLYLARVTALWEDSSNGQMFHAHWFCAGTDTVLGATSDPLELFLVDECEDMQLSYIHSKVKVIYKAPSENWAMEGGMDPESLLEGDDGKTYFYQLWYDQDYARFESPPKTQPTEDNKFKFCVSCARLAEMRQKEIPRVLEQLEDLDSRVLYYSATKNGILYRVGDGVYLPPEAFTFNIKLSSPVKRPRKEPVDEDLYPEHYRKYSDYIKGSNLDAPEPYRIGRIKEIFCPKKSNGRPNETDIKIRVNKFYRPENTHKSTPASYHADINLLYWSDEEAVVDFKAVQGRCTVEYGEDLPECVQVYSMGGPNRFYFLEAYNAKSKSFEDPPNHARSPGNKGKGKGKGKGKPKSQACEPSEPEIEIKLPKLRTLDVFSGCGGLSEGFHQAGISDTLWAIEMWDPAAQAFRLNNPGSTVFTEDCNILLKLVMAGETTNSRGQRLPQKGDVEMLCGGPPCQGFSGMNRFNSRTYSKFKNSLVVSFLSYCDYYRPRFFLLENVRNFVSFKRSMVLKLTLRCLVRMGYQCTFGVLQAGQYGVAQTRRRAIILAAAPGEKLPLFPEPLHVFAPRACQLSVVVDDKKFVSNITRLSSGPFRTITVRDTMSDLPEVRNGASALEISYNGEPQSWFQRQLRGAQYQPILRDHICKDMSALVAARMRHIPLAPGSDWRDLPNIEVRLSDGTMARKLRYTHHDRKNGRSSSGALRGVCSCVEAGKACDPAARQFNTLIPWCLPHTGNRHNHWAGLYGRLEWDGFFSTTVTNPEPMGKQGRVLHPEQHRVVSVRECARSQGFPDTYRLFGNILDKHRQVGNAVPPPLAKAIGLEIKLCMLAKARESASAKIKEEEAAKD
# Description: His-DNMT1 (182 kDa, human) was cloned, expressed, and purified as described by Lee et al.. The DNMT1 assay was performed according to Gros et al.. […] The reaction was incubated 2 h at 37 °C, then 8 µL of the solution are transferred into a streptavidin 96-well scintillant coated Flashplate containing 190 µL of 20 mM SAH in 50 mM Tris–HCl (pH 7.4). The Flashplate is agitated for 1 h at room temperature and washed. The plate is read with TopCount (PerkinElmer). In this assay, the negative and positive controls were defined as wells without enzyme and wells with only DMSO, respectively.
# [1] = biological target: T2, C-terminal catalytic domain of human DNMT3A (hDNMT3A) (Homo sapiens, UniProt Q9Y6K1); assay: DNMT3A restriction-based fluorescence assay; format: biochemical; details: mean of at least two independent experiments; read-out: Enzyme Inhibition (EC50 ± SD) hDNMT3A
# T2 construct: the C-terminal catalytic domain of human DNMT3A (hDNMT3A)
# T2 sequence (Q9Y6K1 634-912 limits assumed): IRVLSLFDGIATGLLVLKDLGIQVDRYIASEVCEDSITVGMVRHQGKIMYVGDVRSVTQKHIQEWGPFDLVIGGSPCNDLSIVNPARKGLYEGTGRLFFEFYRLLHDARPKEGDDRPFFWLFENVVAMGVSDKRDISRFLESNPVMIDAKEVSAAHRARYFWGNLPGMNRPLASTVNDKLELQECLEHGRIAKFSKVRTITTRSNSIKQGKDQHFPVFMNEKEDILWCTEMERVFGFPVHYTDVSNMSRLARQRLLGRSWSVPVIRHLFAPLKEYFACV
# Description: DNMT3A enzyme inhibition was adapted from the restriction-based fluorescence assay protocol described in Ceccaldi et al.. Briefly, a biotin-labelled oligonucleotide at the 5’ end is hybridized to his complementary strand labelled at the 3’ end with 6-carboxyfluorescein. The DNA duplex containing only one single CpG site overlapping with a restriction site of a methylation sensitive restriction enzyme is transferred in the wells coated with avidin. The methylation reaction is performed by adding human C-terminal DNMT3A at the final concentration of 4 ng/µL in a total volume of 50 µL in the presence of the inhibitors at various concentrations and the co-substrate SAM at the final concentration of 20 µM. The plate was incubated for 1 h at 37 °C, washed, and added with the methylation sensitive restriction enzyme HpyCH4IV, incubated for 1 h further at 37 °C, washed and the fluorescence measured with a PerkinElmer Envision Multilabel Plate Reader. The data are expressed as percentage of inhibition vs. log concentration (M). Data are normalized referring to the “restriction control” (wells coated with labelled duplex not treated nor exposed to DNMT3A, but only cleaved by HpyCH4IV) as the maximum of inhibition (100%) and to the “DMSO control” (wells coated with labelled duplex but treated just with 0.1% DMSO exposed to DNMT3A and then to HpyCH4IV) as the minimum of inhibition (0%; total methylation).
# HL60 APL cells [2] = assay: Antiproliferative activity, MTT; format: cell-based; details: Homo sapiens, HL-60, 48 h treatment, read-out: Antiproliferative Activity (IC50 ± SD) HL60
# Description: (§1) U937 histiocytic lymphoma, HL60 acute promyelocytic leukemia, H1299 lung adenocarcinoma, MCF7 breast carcinoma, HT1080 fibrosarcoma, M14 melanoma, HeLa epithelial cervix carcinoma and peripheral blood B lymphocyte AHH1 human cell lines were obtained from the Deutsche Sammlung für Mikroorganismen and Zellkulturen (DSZM, Braunschweig, Germany) and were maintained in RPMI 1640 medium contained 10% fetal bovine serum (FBS), 2 mM L-glutamine, and antibiotics in a humidified atmosphere with 5% CO2 at 37 °C. HCT116 (ATCC, VA, USA) cells were propagated in Dulbecco’s modified Eagle medium (DMEM) (Euroclone, Milan, Italy) with 10% fetal bovine serum (FBS; Euroclone, Milan, Italy), 2 mM L-glutamine (Euroclone, Milan, Italy), and antibiotics (100 U/mL penicillin, 100 µg/mL streptomycin) (Euroclone, Milan, Italy). The experiments were performed with early (3–20) cell passages. Cell lines were treated with compounds at the indicated concentrations in the exponential growth phase.
# (§2) Then, increasing concentrations of different compounds (ranging from 0.01 to 100 μM) were added, and cell proliferation was evaluated by a MTT assay after 48 h. Cells exposed to DMSO were used as control. The effect of compounds was evaluated using the CellTiter-Glo luminescent cell viability assay (Promega, Madison, WI, USA) according to the manufacturer’s instructions. For HCT116, 5 × 10^4 cells/well were plated in 24-well plate and treated, in duplicate, with compounds at several concentrations for 24 and 48 h of induction. After treatments, MTT solution was added for 3 h at 0.5 mg/mL, the obtained crystals were dissolved in DMSO (Sigma-Aldrich, Milan, Italy), and the absorbance was read at a wavelength of 570 nm with reader TECAN M-200. All the experiments were performed in triplicate and repeated at least three times.
# (§3) IC50 values of compounds against cellular viability were determined by using nonlinear regression fitting curves with GraphPad Prism 8. The t-test used for statistical analyses was performed with GraphPad Prism 8. All the tests were one-tailed and a p-value < 0.05 was considered statistically significant.
# U937 AML cells [3] = assay: Antiproliferative activity, MTT; format: cell-based; details: Homo sapiens, U-937, 48 h treatment, read-out: Antiproliferative Activity (IC50 ± SD) U937
# Description: as §1, §2, §3
# [4] = system: H1299 human non-small cell lung carcinoma; assay: Antiproliferative activity, MTT; format: cell-based; details: 48 h treatment, read-out: Antiproliferative Activity (IC50 ± SD) H1299
# Description: as §1, §2, §3
# [5] = system: HCT116 human colorectal carcinoma; assay: Antiproliferative activity, MTT; format: cell-based; details: HCT-116, 48 h treatment, read-out: Antiproliferative Activity (IC50 ± SD) HCT116
# Description: as §1, §2, §3
# [6] = system: HT1080 human fibrosarcoma; assay: Antiproliferative activity, MTT; format: cell-based; details: HT-1080, 48 h treatment, read-out: Antiproliferative Activity (IC50 ± SD) HT1080
# Description: as §1, §2, §3
# [7] = system: HeLa epithelial cervix carcinoma; assay: Antiproliferative activity, MTT; format: cell-based; details: Homo sapiens, 48 h treatment, read-out: Antiproliferative Activity (IC50 ± SD) HeLa
# Description: as §1, §2, §3
# M14 human melanoma = assay: Antiproliferative activity, MTT; format: cell-based; details: 48 h treatment, read-out: Antiproliferative Activity (IC50 ± SD) M14
# Description: as §1, §2, §3
# F21T G-quadruplex DNA = assay: FRET melting assay, G-quadruplex DNA; format: binding
# Description: (§4) Experimental procedure for Fluorescence Resonance Energy Transfer (FRET) melting assay Oligonucleotides labeled at 5’ with FAM (6-carboxyfluorescein) as donor fluorophore and TAMRA (6 - carboxytetramethylrhodamine) at 3’ as the acceptor fluorophore were purchased from STAB VIDA (Portugal). Each oligonucleotide was initial ly diluted to 100 µM in water (Molecular Biology Reagent, Sigma). Stock solutions of 20 µM and subsequent dilutions were made with FRET buffer (60 mM KCl, potassium cacodylate, pH 7.4). Tagged oligonucleotides at 0.4 µM were annealed by heating at 90 -95 °C for 10 min, followed by slow cooling to room temperature. St ock solutions of compounds (1 mM) were prepared in 10% DMSO. Subsequent dilutions were performed using FRET buffer. Annealed DNA (50 µL) and test compound solutions (50 µL) were distributed across 96-well RT-PCR plates (PCR-96-FLT-C, Axygen, Inc). Fluorescence readings (performed in a 7300 RT -PCR equipment from Applied Biosystems) were taken at intervals of 0.5 °C in the range 31 –95 °C, with the temperature being maintained for 30 seconds prior to each reading. Experiments were performed in triplicate. Fina l analysis of the data was carried out with GraphPad Prism v.5.0 (GraphPad Software Inc., La Jolla, CA, USA).
# (§5) The advanced curve-fitting function in GraphPad Prism (nonlinear regression fit) was used for calculation of ΔTm values. Only results with fitting r2 values > 0.75 (std error < 0.25) were considered.
# (§6) Table S2. Synthetic oligonucleotides used in FRET experiments.
# KRAS21R G-quadruplex DNA = assay: FRET melting assay, G-quadruplex DNA; format: binding
# Description: as §4, §5, §6
# U937 AML cells [8] = details: MTT, 48 h, read-out: Antiproliferative Activity (IC50 ± SD) U937, cited from earlier work
# HL60 APL cells [9] = details: MTT, 48 h, read-out: Antiproliferative Activity (IC50 ± SD) HL60, cited from earlier work
# [10] = system: methylated UCHL1 promoter (pUCHL1) in HCT116 cells; assay: UCHL1 promoter demethylation assay (EGFP induction, FACS); format: cell-based, human; details: HCT116, 0.5 µM, five days
# Description: The assay was performed as described in [29]. Briefly, human colon cancer HCT116 (ATCC, VA, USA) cells were grown in Dulbecco’s Modified Eagle Medium (DMEM; Euroclone, Milan, Italy) supplemented with 10% fetal bovine serum (FBS; Euroclone, Milan, Italy), 2 mM L-glutamine (Euroclone), and antibiotics (100 U/mL penicillin, 100 µg/mL streptomycin) (Euroclone). The pUMLIEP vector (composed by MetLuc-IRES-EGFP construct upon the control of the ubiquitin carboxyl-terminal hydrolase L1 (UCHL1)) was linearized and methylated by with ClaI and SssI-methylase enzymes (New England Biolabs, Milan, Italy). After, methylated pUMLIEP was transfected into HCT116 cells following the protocol described in [30]. […] On day 5, cells were observed under by a fluorescent microscope (Cytation 5 Cell Imaging Multi-Mode Reader (BioTeK Milan, Italy) and BD Accuri flow cytometers. Nuclei were counterstained with DAPI (10 µg/mL, Invitrogen, Tournai, Belgium).
EC50 (human DNMT1 (hDNMT1)) [µM],EC50 [1] [µM],IC50 (HL60 APL cells [2]) [µM],IC50 (U937 AML cells [3]) [µM],Compound,IC50 [4] [µM],"IC50 ([4]; Homo sapiens, NCI-H1299, 48 h) [µM]",IC50 [5] [µM],IC50 [6] [µM],IC50 [7] [µM],IC50 (M14 human melanoma) [µM],F21T ∆Tm (F21T G-quadruplex DNA; 5 µM),F21T ∆Tm (F21T G-quadruplex DNA; 10 µM),KRAS ∆Tm (KRAS21R G-quadruplex DNA; 5 µM),KRAS ∆Tm (KRAS21R G-quadruplex DNA; 10 µM),IC50 (U937 AML cells [8]; reference compounds) [µM],IC50 (HL60 APL cells [9]; reference compounds) [µM],"pUCHL1 demethylation, EGFP-positive cells (FACS R1) [10] [%]",IC50 (U937 AML cells [8]; reference compound) [µM],IC50 (HL60 APL cells [9]; reference compound) [µM]
35 ± 7,31 ± 6,36 ± 4,25.8 ± 3.2,Cc1cc(Nc2cccc(CNC(=O)c3cccc(Nc4ccnc5ccccc45)c3)c2)nc(N)n1 [Compound 1c],–,–,–,–,–,–,–,–,–,–,–,–,–,–,–
–,–,–,–,"O=C(Nc1ccc(Nc2ccnc3ccccc23)cc1)c1ccc(Nc2ccnc3ccccc23)cc1 [Compound 2, reference compound]",11.4 ± 1.8,11,13.3 ± 2.1,17 ± 2.1,52 ± 5.7,80 ± 9.1,0.6 ºC,6.2 ºC,1.0 ºC,9.6 ºC,6.6 ± 0.9,65 ± 8.1,–,–,–
–,–,–,–,Cc1cc(Nc2ccc(NC(=O)c3ccc(Nc4cc(C)nc(N)n4)cc3)cc2)nc(N)n1 [Compound 3],–,–,–,–,–,–,–,–,–,–,60 ± 8.2,119 ± 12.9,–,–,–
–,–,–,–,"Cc1cc(Nc2ccc(NC(=O)c3ccc(Nc4ccnc5ccccc45)cc3)cc2)nc(N)n1 [SGI-1027, reference compound]",–,–,–,–,–,–,1.9 ºC,7.2 ºC,6.7 ºC,8.7 ºC,0.7 ± 0.08,0.7 ± 0.16,32.9,–,–
–,–,–,–,"O=C(Nc1ccc(NC(=O)c2ccc(Nc3ccnc4ccccc34)cc2)cc1)OCc1ccccc1 [Compound 4, reference compound]",–,5.9 ± 0.8,8.6 ± 1,1.7 ± 0.2,3.2 ± 0.5,2.9 ± 0.4,2.7 ºC,6.9 ºC,1 ºC,10.4 ºC,–,–,–,2.3 ± 0.4,8.3 ± 1
